This note sets out measurements from US9416127B2, “Triazole carboxamides and uses thereof” (Hoffmann-La Roche Inc., priority 2012, dated 2016).

One assay concerns the target rat TAAR1 (Rattus norvegicus (Rat), UniProt Q923Y9). Kind of assay: Radioligand binding assay on rat TAAR1. As to conditions: for Ki: rat TAAR1, HEK-293 membranes, second value of mouse/rat cell. How it is done:
(§1) Construction of TAAR Expression Plasmids and Stably Transfected Cell Lines
(§2) For the construction of expression plasmids the coding sequences of human, rat and mouse TAAR 1 were amplified from genomic DNA essentially as described by Lindemann et al.. The Expand High Fidelity PCR System (Roche Diagnostics) was used with 1.5 mM Mg^2+ and purified PCR products were cloned into pCR2.1-TOPO cloning vector (Invitrogen) following the instructions of the manufacturer. PCR products were subcloned into the pIRESneo2 vector (BD Clontech, Palo Alto, Calif.), and expression vectors were sequence verified before introduction in cell lines.
(§3) HEK293 cells (ATCC # CRL-1573) were cultured essentially as described by Lindemann et al. (2005). For the generation of stably transfected cell lines HEK293 cells were transfected with the pIRESneo2 expression plasmids containing the TAAR coding sequences (described above) with Lipofectamine 2000 (Invitrogen) according to the instructions of the manufacturer, and 24 hrs post transfection the culture medium was supplemented with 1 mg/ml G418 (Sigma, Buchs, Switzerland). After a culture period of about 10 d clones were isolated, expanded and tested for responsiveness to trace amines (all compounds purchased from Sigma) with the cAMP Biotrak Enzyme immunoassay (EIA) System (Amersham) following the non-acetylation EIA procedure provided by the manufacturer.
Radioligand Binding Assay on Rat TAAR1
(§4) Membrane Preparation and Radioligand Binding.
(§5) HEK-293 cells stably expressing rat TAAR1 were maintained at 37° C. and 5% CO2 in DMEM high glucose medium, containing fetal calf serum (10%, heat inactivated for 30 min at 56° C.), penicillin/streptomycin (1%), and 375 μg/ml geneticin (Gibco). Cells were released from culture flasks using trypsin/EDTA, harvested, washed twice with ice-cold PBS (without Ca^2+ and Mg^2+), pelleted at 1'000 rpm for 5 min at 4° C., frozen and stored at −80° C. Frozen pellets were suspended in 20 ml HEPES-NaOH (20 mM, pH 7.4) containing 10 mM EDTA and homogenized with a Polytron (PT 6000, Kinematica) at 14'000 rpm for 20 s. The homogenate was centrifuged at 48'000×g for 30 min at 4° C. Subsequently, the supernatant was removed and discarded, and the pellet resuspended in 20 ml HEPES-NaOH (20 mM, pH 7.4) containing 0.1 mM EDTA using the Polytron (20 s at 14'000 rpm). This procedure was repeated and the final pellet resuspended in HEPES-NaOH containing 0.1 mM EDTA and homogenized using the Polytron. Typically, aliquots of 2 ml membrane portions were stored at −80° C. With each new membrane batch the dissociation constant (Kd) was determined via a saturation curve. […] Nonspecific binding was defined as the amount of ^3[H]—(S)-4-[(ethyl-phenyl-amino)-methyl]-4,5-dihydro-oxazol-2-ylamine bound in the presence of 10 μM unlabeled ligand. All compounds were tested at a broad range of concentrations (10 μM to 10 μM) in duplicates. […] The 96 deep well plates were incubated for 1 hr at 4° C. Incubations were terminated by rapid filtration through Unifilter-96 plates (Packard Instrument Company) and glass filters GF/C (Perkin Elmer) presoaked for 1 hr in polyethylenimine (0.3%) and washed 3 times with 1 ml of cold binding buffer. After addition of 45 μl of Microscint 40 (PerkinElmer) the Unifilter-96 plate was sealed and after 1 hr the ratioactivity counted using a TopCount Microplate Scintillation Counter (Packard Instrument Company).

For a further assay, the target named is mouse TAAR1 (Mus musculus (Mouse), UniProt Q923Y8). Put plainly: Radioligand binding assay on mouse TAAR1. As to conditions: for Ki: mouse TAAR1, HEK-293 membranes, first value of mouse/rat cell. The method, then:
as §1, §2, §3
Radioligand Binding Assay on Mouse TAAR1
as §4
as §5, with “expressing mouse” for “expressing rat”, “(10 pM” for “(10 μM”

Counter-ions that a name gives are not always drawn.

Sequence of mouse TAAR1 (Q923Y8 whole entry): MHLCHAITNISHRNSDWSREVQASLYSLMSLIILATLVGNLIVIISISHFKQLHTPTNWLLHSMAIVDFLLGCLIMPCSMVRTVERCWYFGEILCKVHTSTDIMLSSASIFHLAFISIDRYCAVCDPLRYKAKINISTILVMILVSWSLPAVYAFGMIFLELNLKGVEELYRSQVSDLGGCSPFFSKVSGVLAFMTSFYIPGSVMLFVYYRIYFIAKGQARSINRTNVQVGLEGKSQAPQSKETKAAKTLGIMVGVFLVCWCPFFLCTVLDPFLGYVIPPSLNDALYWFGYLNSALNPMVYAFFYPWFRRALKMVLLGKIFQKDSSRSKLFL
Sequence of rat TAAR1 (Q923Y9 whole entry): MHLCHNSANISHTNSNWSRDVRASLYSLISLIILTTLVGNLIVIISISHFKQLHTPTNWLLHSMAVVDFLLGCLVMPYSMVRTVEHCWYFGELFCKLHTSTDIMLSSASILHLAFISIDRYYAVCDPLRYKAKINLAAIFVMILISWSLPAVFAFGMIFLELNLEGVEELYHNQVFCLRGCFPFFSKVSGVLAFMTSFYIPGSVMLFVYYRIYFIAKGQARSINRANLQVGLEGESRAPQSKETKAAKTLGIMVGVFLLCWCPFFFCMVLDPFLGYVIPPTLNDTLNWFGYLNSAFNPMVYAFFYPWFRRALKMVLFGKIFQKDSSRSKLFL

With `O=C(Nc1ccc([C@H]2CNCCO2)cc1)c1cnn(-c2ccc(OC(F)F)cc2)n1` [Example 16, (S)-2-(4-(Difluoromethoxy)phenyl)-N-(4-(morpholin-2-yl)phenyl)-2H-1,2,3-triazole-4-carboxamide hydrochloride], the Ki on rat TAAR1 is 0.0002 µM; at mouse TAAR1, 0.0003 µM.
The matching figures for `O=C(Nc1ccc(C2CCNC2)cc1)c1cn(-c2ccc(OC(F)F)cc2)nn1` (racemic) [Example 33, (RS)-1-(4-(Difluoromethoxy)phenyl)-N-(4-(pyrrolidin-3-yl)phenyl)-1H-1,2,3-triazole-4-carboxamide]: 0.0189 µM and 0.0049 µM.
In the same order, the values of `O=C(Nc1ccc([C@H]2CNCCO2)cc1)c1cnn(-c2cccc(C(F)(F)F)c2)n1` [Example 13, (S)—N-(4-(Morpholin-2-yl)phenyl)-2-(3-(trifluoromethyl)phenyl)-2H-1,2,3-triazole-4-carboxamide hydrochloride] are 0.0006 µM and 0.0003 µM.
In the same order, the values of `Cc1ccc(-n2cc(C(=O)Nc3ccc([C@H]4CNCCO4)cc3)nn2)cc1` [Example 17, (S)—N-(4-(Morpholin-2-yl)phenyl)-1-p-tolyl-1H-1,2,3-triazole-4-carboxamide hydrochloride] are 0.0174 µM and 0.0013 µM.
Consider `CCN(C[C@H]1COC(N)=N1)c1ccccc1` [^3[H]—(S)-4-[(ethyl-phenyl-amino)-methyl]-4,5-dihydro-oxazol-2-ylamine, reference compound], for which the Kd was about 2.3 nM at rat TAAR1 (rat TAAR1 membranes, saturation curve, read-out: dissociation constant (Kd) of radioligand) and about 0.7 nM at mouse TAAR1 (mouse TAAR1 membranes, saturation curve, read-out: dissociation constant (Kd) of radioligand).
For the compound `Cc1nn(-c2ccccc2)nc1C(=O)Nc1ccc([C@H]2CNCCO2)cc1` [Example 2, (S)-5-Methyl-N-(4-(morpholin-2-yl)phenyl)-2-phenyl-2H-1,2,3-triazole-4-carboxamide hydrochloride], the Ki on rat TAAR1 was 0.0008 µM; on mouse TAAR1 it was 0.0015 µM.
In the same order, the values of `O=C(Nc1ccc([C@H]2CNCCO2)cc1)c1cnn(-c2ccc(C(F)(F)F)cc2)n1` [Example 10, (S)—N-(4-(Morpholin-2-yl)phenyl)-2-(4-(trifluoromethyl)phenyl)-2H-1,2,3-triazole-4-carboxamide hydrochloride] are 0.0002 µM and 0.0004 µM.
The matching figures for `O=C(Nc1ccc([C@H]2CNCCO2)cc1)c1cnn(-c2ccc(F)cc2)n1` [Example 9, (S)-2-(4-Fluorophenyl)-N-(4-(morpholin-2-yl)phenyl)-2H-1,2,3-triazole-4-carboxamide hydrochloride]: 0.0006 µM and 0.0004 µM.
In the same order, the values of `CCOc1cccc(-n2ncc(C(=O)Nc3ccc([C@H]4CNCCO4)cc3)n2)c1` [Example 31, hydrochloride] are 0.107 µM and 0.013 µM.
Take `COc1cccc(-n2ncc(C(=O)Nc3ccc([C@H]4CNCCO4)cc3)n2)c1` [Example 30, (S)-2-(3-Methoxyphenyl)-N-(4-(morpholin-2-yl)phenyl)-2H-1,2,3-triazole-4-carboxamide hydrochloride]: the results for the Ki on rat TAAR1 and on mouse TAAR1 were 0.0082 µM and 0.0032 µM, respectively.
The matching figures for `Cc1cccc(-n2ncc(C(=O)Nc3ccc([C@H]4CNCCO4)cc3)n2)c1` [Example 23, (S)—N-(4-(Morpholin-2-yl)phenyl)-2-m-tolyl-2H-1,2,3-triazole-4-carboxamide hydrochloride]: 0.0005 µM and 0.0011 µM.
The matching figures for `CCOc1cccc(-n2cc(C(=O)Nc3ccc([C@H]4CNCCO4)cc3)nn2)c1` [Example 26, (S)-1-(3-Ethoxyphenyl)-N-(4-(morpholin-2-yl)phenyl)-1H-1,2,3-triazole-4-carboxamide hydrochloride]: 0.0032 µM and 0.0011 µM.
The matching figures for `O=C(Nc1ccc([C@H]2CNCCO2)cc1)c1ncn(-c2ccc(OC(F)F)cc2)n1` [Example 32, (S)-1-(4-(Difluoromethoxy)phenyl)-N-(4-(morpholin-2-yl)phenyl)-1H-1,2,4-triazole-3-carboxamide hydrochloride]: 0.045 µM and 0.0018 µM.
